According to US20050019847A1, “ISG15-conjugated proteins” (priority 2003, published 2005):
Peptide text beside a SMILES is read from it. * marks the point of attachment. Cbz = O=C(OCc1ccccc1)*

Experiments:
[1] = test system: ubiquitinated proteins; experiment: Western blot of ubiquitinated proteins in MEFs treated with proteasome inhibitor; format: cell-based, murine; conditions: UBP43−/− and UBP43+/+ MEFs, uninduced or IFNβ induced; lactacystin 5 μM for 3 hours
Method: (§1) (A) UBP43^+/+ and UBP43^−/− MEFs were incubated with or without IFNβ for 18 hours and were treated with lactacystin at a final concentration of 5 μM for 3 hours. An equal volume of DMSO (vehicle) was added to control samples. Cell lysates (10 μg total protein) were resolved on 8-18% minigel and western blot was performed with rabbit anti-mouse ISG15. The membrane was stripped and reprobed with anti-Ub serum. (B) UBP43^+/+ (not treated with IFN) and UBP43^−/− (incubated with IFNβ for 18 hours) MEFs were treated with MG132 at a final concentration of 10 μM for 3 hours. An equal volume of DMSO (vehicle) was added to control samples. PLCγ1 was immunoprecipitated and immunocomplexes were resolved on 7% minigel. The membrane was probed with anti-ISG15 and, after stripping, was reprobed with anti-PLCγ1. Positions of unmodified PLCγ1 are shown with arrows and positions of conjugates are shown with asterisks. Cell lysates (10 μg total protein) were also resolved on an identical minigel to assess amount of ISG15- and Ub-conjugates. Western blot was performed with rabbit anti-mouse ISG15 and after stripping the membrane was reprobed with anti-Ub serum.
(§2) Wild type and UBP43^−/− murine embryonic fibroblasts (MEFs) were generated from a litter of embryos on embryonic day 12.5. Briefly, embryonic torsos were minced and trypsinized for 30 min at 37° C. […]

[2] = test system: ISG15-conjugates; experiment: Western blot of ISG15-conjugates in MEFs treated with proteasome inhibitor; format: cell-based, murine
Method: as §1, §2

Row | Compound | amount of ubiquitinated proteins [1] | amount of ISG15-conjugates, treated vs untreated samples ([2]; UBP43−/− and UBP43+/+ MEFs, uninduced or IFNβ induced, lactacystin 5 μM for 3 hours) | level of ISG15-conjugation ([2]; UBP43+/+ (no IFN) and UBP43−/− (IFNβ 18 hours) MEFs, MG132 10 μM for 3 hours)
1 | CC(=O)N[C@@H](CSC(=O)[C@]1([C@@H](O)C(C)C)NC(=O)[C@H](C)[C@@H]1O)C(=O)O [lactacystin] | increase | no difference | –
2 | CC(C)C[C@@H](C=O)NC(=O)[C@H](CC(C)C)NC(=O)[C@H](CC(C)C)NC(=O)OCc1ccccc1 [MG132] (Cbz-Leu-Leu-Leu-aldehyde) | – | – | do not affect
